“And” between values parts separate entries of the source, which are not always exact repeats. Identical values can stand only once.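 Cultured in 96-well plates, cells were exposed to test compound for 48 hours across five concentrations. Abbreviation: GI50, concentration required for 50% inhibition of growth. At the TGI there is no net growth.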
test system: KM12 colon; assay: NCI tumour cell line growth inhibition, 48 h

Point of comparison: `c1ccc(Nc2ncc(-c3ccccc3)o2)cc1`, GI50 10.7 µM. Against it:
- O=[N+]([O-])c1cc([N+](=O)[O-])c(C(F)(F)F)cc1NN=C(c1ccc(O)cc1)c1ccc(O)cc1 — 4-fold lower, 2.7 µM
- COc1c2ccccc2c(OC)c2[nH]c(=O)ccc12 — 3.4-fold lower, 3.11 µM
- O=C(O)C(Cl)Cl — higher, > 10000 µM
- NC(=S)N/N=C\c1nccc2c(C(F)(F)F)cccc12 — 30-fold lower, 0.356 µM
- CC(=O)N[C@@H](Cc1ccc(OP(=O)(O)O)cc1)C(=O)N[C@H]1CCC(=O)N2CCC[C@@H](C(=O)Nc3cccc4ccccc34)N2C1=O — higher, > 25 µM

Point of comparison: `NC(=S)N/N=C\c1nccc2c(C(F)(F)F)cccc12`, TGI 16.9 µM. Against it:
- O=[N+]([O-])c1cc([N+](=O)[O-])c(C(F)(F)F)cc1NN=C(c1ccc(O)cc1)c1ccc(O)cc1 — 2.2-fold lower, 7.85 µM
- c1ccc(Nc2ncc(-c3ccccc3)o2)cc1 — higher, > 25 µM
- COc1c2ccccc2c(OC)c2[nH]c(=O)ccc12 — higher, > 27.5 µM
- O=C(O)C(Cl)Cl — higher, > 10000 µM
- CC(=O)N[C@@H](Cc1ccc(OP(=O)(O)O)cc1)C(=O)N[C@H]1CCC(=O)N2CCC[C@@H](C(=O)Nc3cccc4ccccc34)N2C1=O — higher, > 25 µM
- O=C(/C=C/c1c(O)ccc2ccccc12)c1ccc([N+](=O)[O-])cc1 — higher, > 100 µM

test system: LOX IMVI melanoma; assay: NCI tumour cell line growth inhibition, 48 h

Point of comparison: `CN1CCN(C(=O)COc2ccc(C34CC5CC(CC(C5)C3)C4)cc2)CC1`, TGI 25 µM. Against it:
- CN(C)c1ccc(/C=N/NC(=S)Nc2ccccc2)cc1 — higher, > 100 µM
- COc1ccc2ncnc(Nc3ccc(OCc4ccccc4)cc3)c2c1 — higher, > 25 µM
- O=C1c2c(F)c(F)c(F)c(F)c2C(=O)N1c1ccc(F)cc1F — 4.9-fold lower, 5.11 µM
- O=C1C(C(Nc2ccccc2)c2ccccc2)=C([O-])c2ccccc21.O=C1C(C(Nc2ccccc2)c2ccccc2)=C([O-])c2ccccc21.[Cu+2] (configuration not stated) — higher, > 100 µM
- OC(c1cc(C(F)(F)F)nc2c(C(F)(F)F)cccc12)C1CCCCN1 (configuration not stated) — 7.9-fold lower, 3.15 µM
- C/C=C/[C@@H]1O[C@@H]2COC(=O)C2=C[C@@H]1O — within 1.5-fold, 36.1 µM
- COC(=O)/C=C/c1cc(OC(C)=O)c2c(c1)[C@@H](C(=O)OC)[C@H](c1ccc(OC(C)=O)c(OC(C)=O)c1)O2 — 1.6-fold higher, 40.3 µM
- Nc1nc2[nH]cc(CCc3ccc(C(=O)N[C@@H](CCC(=O)O)C(=O)O)cc3)c2c(=O)[nH]1 — higher, > 100 µM
- CCC(C)SC1SCC2C(=O)N(C)C3(CC3C)C(=O)OCC(NC(=O)c3nc4ccccc4cc3O)C(=O)NC(C)C(=O)N(C)C1C(=O)N(C)C1(CC1C)C(=O)OCC(NC(=O)c1nc3ccccc3cc1O)C(=O)NC(C)C(=O)N2C (configuration not stated) — far lower, 0.000122 µM
- Cc1[cH-]c(=O)n(-c2ccccc2)n1.[Au+].[Au].c1ccc([PH+](c2ccccc2)c2ccccc2)cc1.c1ccc([PH+](c2ccccc2)c2ccccc2)cc1 — 1.9-fold higher, 46.8 µM
- COc1ccccc1NC(=O)c1cc2cc(Br)ccc2cc1O — 2.8-fold lower, 8.8 µM
- CC(=O)OCc1ccc2c(c1)C(O)NC(=O)O2 (configuration not stated) — higher, > 100 µM
- CC1(C)CC(c2c[nH]c3ccccc23)=CC2=Nc3ccccc3C21O (configuration not stated) — higher, > 100 µM
- O=C(Nc1nn2c(-c3cc(C(F)(F)F)cc(C(F)(F)F)c3)nnc2s1)C1CCCC1 — higher, > 100 µM
- COC(=O)[C@]12CC[C@@H](C)[C@H](C)[C@@H]1C1=CC[C@@H]3[C@@]4(C)C[C@@H](O)[C@H](O)[C@@](C)(CO)[C@@H]4[C@H](O)C[C@@]3(C)[C@]1(C)CC2 — within 1.5-fold, 28 µM
- COc1ccc(CN2C(=O)C(Cl)=C(Nc3cccc(C(F)(F)F)c3)C2=O)cc1 — 1.8-fold lower, 14.1 µM
- COCCn1cc(-c2nc(-c3cc4cccnc4[nH]3)cs2)c2cc(OC)ccc21 — within 1.5-fold, 35.1 µM
- O=[N+]([O-])c1cc([N+](=O)[O-])c(C(F)(F)F)cc1NN=C(c1ccc(O)cc1)c1ccc(O)cc1 — 7.8-fold lower, 3.21 µM
- c1ccc(Nc2ncc(-c3ccccc3)o2)cc1 — higher, > 25 µM
- COc1c2ccccc2c(OC)c2[nH]c(=O)ccc12 — not separable, > 23 µM
- O=C(O)C(Cl)Cl — higher, > 10000 µM
- NC(=S)N/N=C\c1nccc2c(C(F)(F)F)cccc12 — 2.3-fold lower, 10.8 µM
- CC(=O)N[C@@H](Cc1ccc(OP(=O)(O)O)cc1)C(=O)N[C@H]1CCC(=O)N2CCC[C@@H](C(=O)Nc3cccc4ccccc34)N2C1=O — higher, > 25 µM

Point of comparison: `O=[N+]([O-])c1cc([N+](=O)[O-])c(C(F)(F)F)cc1NN=C(c1ccc(O)cc1)c1ccc(O)cc1`, GI50 1.57 µM. Against it:
- COc1ccc2ncnc(Nc3ccc(OCc4ccccc4)cc3)c2c1 — 5-fold higher, 7.85 µM
- O=C1c2c(F)c(F)c(F)c(F)c2C(=O)N1c1ccc(F)cc1F — within 1.5-fold, 1.5 µM
- O=C1C(C(Nc2ccccc2)c2ccccc2)=C([O-])c2ccccc21.O=C1C(C(Nc2ccccc2)c2ccccc2)=C([O-])c2ccccc21.[Cu+2] (configuration not stated) — 30-fold higher, 46.6 µM
- OC(c1cc(C(F)(F)F)nc2c(C(F)(F)F)cccc12)C1CCCCN1 (configuration not stated) — within 1.5-fold, 1.65 µM
- C/C=C/[C@@H]1O[C@@H]2COC(=O)C2=C[C@@H]1O — 11-fold higher, 17.5 µM
- COC(=O)/C=C/c1cc(OC(C)=O)c2c(c1)[C@@H](C(=O)OC)[C@H](c1ccc(OC(C)=O)c(OC(C)=O)c1)O2 — 26-fold lower, 0.0615 µM
- Nc1nc2[nH]cc(CCc3ccc(C(=O)N[C@@H](CCC(=O)O)C(=O)O)cc3)c2c(=O)[nH]1 — 14-fold lower, 0.111 µM
- CN1CCN(C(=O)COc2ccc(C34CC5CC(CC(C5)C3)C4)cc2)CC1 — 7.8-fold higher, 12.3 µM
- Cc1[cH-]c(=O)n(-c2ccccc2)n1.[Au+].[Au].c1ccc([PH+](c2ccccc2)c2ccccc2)cc1.c1ccc([PH+](c2ccccc2)c2ccccc2)cc1 — 11-fold higher, 18 µM
- COc1ccccc1NC(=O)c1cc2cc(Br)ccc2cc1O — 1.7-fold higher, 2.69 µM
- O=C(Nc1nn2c(-c3cc(C(F)(F)F)cc(C(F)(F)F)c3)nnc2s1)C1CCCC1 — 1.9-fold lower, 0.807 µM
- COC(=O)[C@]12CC[C@@H](C)[C@H](C)[C@@H]1C1=CC[C@@H]3[C@@]4(C)C[C@@H](O)[C@H](O)[C@@](C)(CO)[C@@H]4[C@H](O)C[C@@]3(C)[C@]1(C)CC2 — 8.9-fold higher, 14 µM
- COc1ccc(CN2C(=O)C(Cl)=C(Nc3cccc(C(F)(F)F)c3)C2=O)cc1 — 2-fold higher, 3.08 µM
- COCCn1cc(-c2nc(-c3cc4cccnc4[nH]3)cs2)c2cc(OC)ccc21 — 2.1-fold higher, 3.35 µM
- c1ccc(Nc2ncc(-c3ccccc3)o2)cc1 — 14-fold higher, 22.6 µM
- COc1c2ccccc2c(OC)c2[nH]c(=O)ccc12 — within 1.5-fold, 1.84 µM
- NC(=S)N/N=C\c1nccc2c(C(F)(F)F)cccc12 — 5.7-fold lower, 0.277 µM
- CC(=O)N[C@@H](Cc1ccc(OP(=O)(O)O)cc1)C(=O)N[C@H]1CCC(=O)N2CCC[C@@H](C(=O)Nc3cccc4ccccc34)N2C1=O — higher, > 25 µM

`O=C(O)C(Cl)Cl` was tested, and the GI50 was 7490 µM and > 10000 µM.

Source: PubChem BioAssay (NCI)
